Results reported in patent US8551516B2, “Administration of non-oral androgenic steroids to women” (Actavis, Inc., priority 1999, dated 2013).

What was measured:
[1] = Pharmacokinetic study of testosterone transdermal matrix patch in surgically menopausal women: total and free testosterone; type: in vivo, human; conditions: 300 mcg/day patch; for concentration at 3.5 day: female, human, serum, time-average change from baseline, mean±SEM
Description: One group had received no estrogen replacement therapy (ERT) for at least one month, the second group was receiving transdermal estadiol (E2) at a dosage of 0.1 mg/day, and the third group was receiving oral conjugated equine estrogens (CEE) at a dosage of 1.25 mg/day. […] The resultant hormone data (mean±SEM) for the three groups of surgically menopausal women participating in the clinical study is summarized in Table 2 below.
It should be noted that the normal range for SHBG levels is 36 to 185 nmol/L using the Endocrine Sciences assay.

[2] = Estimated testosterone delivery rate for a given increase in free testosterone, power-law regression of FIG. 2; type: in vivo, human
[3] = tested on: sexual function, mood and well-being; assay: Example 1: 12-week coadministration of oral estrogen and transdermal testosterone, sexual function, mood and well-being; type: in vivo, human; conditions: transdermal patch 300 mcg/day twice weekly plus oral Premarin 0.625 to 2.5 mg daily; after 12 weeks; surgically menopausal women
Excerpt: The duration of coadministration was 12 weeks.

[4] = molecular target: T1, sex hormone binding globulin (SHBG) (Homo sapiens, UniProt P04278); conditions: adapted from Dunn et al. 1981; human plasma; cited from earlier work
T1 sequence (P04278 30-402): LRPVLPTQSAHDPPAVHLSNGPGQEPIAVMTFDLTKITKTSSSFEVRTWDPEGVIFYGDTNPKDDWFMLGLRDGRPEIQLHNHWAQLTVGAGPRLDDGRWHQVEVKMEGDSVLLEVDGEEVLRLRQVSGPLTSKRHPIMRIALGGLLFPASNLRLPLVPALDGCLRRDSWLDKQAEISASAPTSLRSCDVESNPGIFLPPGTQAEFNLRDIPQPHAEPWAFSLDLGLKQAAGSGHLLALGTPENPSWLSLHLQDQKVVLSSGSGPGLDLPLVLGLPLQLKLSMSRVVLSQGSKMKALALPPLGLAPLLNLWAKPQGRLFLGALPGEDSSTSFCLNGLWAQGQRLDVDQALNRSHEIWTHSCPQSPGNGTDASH

[5] = Example 1: serum hormone levels on the regimen; conditions: Example 1 regimen; for bioavailability: female, human, in vivo
Description: The estrogen consisted of conjugated equine estrogen (Premarin® tablets) at a daily dose of 0.625 to 2.5 mg. […] The duration of coadministration was 12 weeks.

[6] = Predicted change in total testosterone, power-law regression of FIG. 1; conditions: for concentration at 3.5 day: human, serum, other: transdermal
[7] = Change in FT 1 pg/mL, SHBG 50 nmol/L
[8] = Change in FT 1 pg/mL, SHBG 84 nmol/L
[9] = Change in FT 1 pg/mL, SHBG 100 nmol/L
[10] = Change in FT 1 pg/mL, SHBG 200 nmol/L
[11] = Change in FT 1 pg/mL, SHBG 400 nmol/L
[12] = Change in FT 1 pg/mL, SHBG 600 nmol/L
[13] = Change in FT 1 pg/mL, SHBG 700 nmol/L
[14] = Change in FT 2.5 pg/mL, SHBG 50 nmol/L
[15] = Change in FT 2.5 pg/mL, SHBG 84 nmol/L
[16] = Change in FT 2.5 pg/mL, SHBG 100 nmol/L
[17] = Change in FT 2.5 pg/mL, SHBG 200 nmol/L
[18] = Change in FT 2.5 pg/mL, SHBG 400 nmol/L
[19] = Change in FT 2.5 pg/mL, SHBG 600 nmol/L
[20] = Change in FT 2.5 pg/mL, SHBG 700 nmol/L
[21] = Change in FT 5 pg/mL, SHBG 50 nmol/L
[22] = Change in FT 5 pg/mL, SHBG 84 nmol/L
[23] = Change in FT 5 pg/mL, SHBG 100 nmol/L
[24] = Change in FT 5 pg/mL, SHBG 200 nmol/L
[25] = Change in FT 5 pg/mL, SHBG 400 nmol/L
[26] = Change in FT 5 pg/mL, SHBG 600 nmol/L
[27] = Change in FT 5 pg/mL, SHBG 700 nmol/L
[28] = Change in FT 10 pg/mL, SHBG 50 nmol/L
[29] = Change in FT 10 pg/mL, SHBG 84 nmol/L
[30] = Change in FT 10 pg/mL, SHBG 100 nmol/L
[31] = Change in FT 10 pg/mL, SHBG 200 nmol/L
[32] = Change in FT 15 pg/mL, SHBG 50 nmol/L
[33] = Change in FT 15 pg/mL, SHBG 84 nmol/L
[34] = Change in FT 15 pg/mL, SHBG 100 nmol/L
[35] = Change in FT 15 pg/mL, SHBG 200 nmol/L
[36] = Change in FT 15 pg/mL, SHBG 400 nmol/L
[37] = Change in FT 15 pg/mL, SHBG 600 nmol/L
[38] = Change in FT 15 pg/mL, SHBG 700 nmol/L

## C[C@]12CC[C@H]3[C@@H](CCC4=CC(=O)CC[C@@]43C)[C@@H]1CC[C@@H]2O [testosterone, (17)-17-Hydroxyandrost-4-en-3-one]
[1]
  mean increase in free serum testosterone lower in oral estrogen group than other two groups: approximately 40%
[1]; time-averaged change from baseline
  mean increase in total serum testosterone greater in oral estrogen group than other two groups: approximately 30%
[1]; other: transdermal patch, with Transdermal E2 0.1 mg/day, n=12, read-out: Changes in Free T
  concentration at 3.5 day: 0.0042 ± 0.0007 ng/mL
[1]; other: transdermal patch, with Transdermal E2 0.1 mg/day, n=12, read-out: Changes in Total T
  concentration at 3.5 day: 0.536 ± 0.072 ng/mL
[1]; other: transdermal patch, 300 mcg/day, No ERT, n=19, 3.5 day application, read-out: Changes in Total T
  concentration at 3.5 day: 0.572 ± 0.044 ng/mL
[1]; other: transdermal patch, 300 mcg/day, No ERT, n=19, read-out: Changes in Free T
  concentration at 3.5 day: 0.0046 ± 0.0004 ng/mL
[1]; po, with Oral CEE 1.25 mg/day, n=13, read-out: Changes in Free T
  concentration at 3.5 day: 0.00256 ± 0.0003 ng/mL
[1]; po, with Oral CEE 1.25 mg/day, n=13, read-out: Changes in Total T
  concentration at 3.5 day: 0.708 ± 0.096 ng/mL
[2]; [7]
  Estimated Delivery Rate: 55 µg/day
[2]; [8]
  Estimated Delivery Rate: 69 µg/day
[2]; [9]
  Estimated Delivery Rate: 74 µg/day
[2]; [10]
  Estimated Delivery Rate: 98 µg/day
[2]; [11]
  Estimated Delivery Rate: 131 µg/day
[2]; [12]
  Estimated Delivery Rate: 155 µg/day
[2]; [13]
  Estimated Delivery Rate: 166 µg/day
[2]; [14]
  Estimated Delivery Rate: 139 µg/day
[2]; [15]
  Estimated Delivery Rate: 172 µg/day
[2]; [16]
  Estimated Delivery Rate: 185 µg/day
[2]; [17]
  Estimated Delivery Rate: 246 µg/day
[2]; [18]
  Estimated Delivery Rate: 328 µg/day
[2]; [19]
  Estimated Delivery Rate: 388 µg/day
[2]; [20]
  Estimated Delivery Rate: 414 µg/day
[2]; [21]
  Estimated Delivery Rate: 277 µg/day
[2]; [22]
  Estimated Delivery Rate: 344 µg/day
[2]; [23]
  Estimated Delivery Rate: 369 µg/day
[2]; [24]
  Estimated Delivery Rate: 492 µg/day
[2]; [25]
  Estimated Delivery Rate: 656 µg/day
[2]; [26]
  Estimated Delivery Rate: 111 µg/day
[2]; [27]
  Estimated Delivery Rate: 828 µg/day
[2]; [28]
  Estimated Delivery Rate: 554 µg/day
[2]; [29]
  Estimated Delivery Rate: 687 µg/day
[2]; [30]
  Estimated Delivery Rate: 739 µg/day
[2]; [31]
  Estimated Delivery Rate: 985 µg/day
[2]; Change in FT 10 pg/mL, SHBG 400 nmol/L
  Estimated Delivery Rate: 1313 µg/day
[2]; Change in FT 10 pg/mL, SHBG 600 nmol/L
  Estimated Delivery Rate: 1553 µg/day
[2]; Change in FT 10 pg/mL, SHBG 700 nmol/L
  Estimated Delivery Rate: 1656 µg/day
[2]; [32]
  Estimated Delivery Rate: 831 µg/day
[2]; [33]
  Estimated Delivery Rate: 1031 µg/day
[2]; [34]
  Estimated Delivery Rate: 1108 µg/day
[2]; [35]
  Estimated Delivery Rate: 1477 µg/day
[2]; [36]
  Estimated Delivery Rate: 1969 µg/day
[2]; [37]
  Estimated Delivery Rate: 2330 µg/day
[2]; [38]
  Estimated Delivery Rate: 2484 µg/day
[3]
  sexual function, mood and well-being in comparison to conjugated equine estrogen alone: improved sexual function, mood and well-being
[4]
  K (binding affinity constant for SHBG): 1600 10^6 Liter/mole
[5]
  women with free testosterone level below 6.8 pg/mL: 78%
  women with free testosterone level below 15 pg/mL: 97%
  women with total testosterone levels in excess of 80 ng/dL: 73%
[5]; women with bioavailable testosterone level below 12.7 ng/dL
  bioavailability: 68%
[5]; women with bioavailable testosterone level below 35 ng/dL
  bioavailability: 97%
[6]; [7]
  Predicted Changes in Total Testosterone: 9 ng/dL
[6]; [8]
  Predicted Changes in Total Testosterone: 12 ng/dL
[6]; [9]
  Predicted Changes in Total Testosterone: 14 ng/dL
[6]; [10]
  Predicted Changes in Total Testosterone: 23 ng/dL
[6]; [11]
  Predicted Changes in Total Testosterone: 37 ng/dL
[6]; [12]
  Predicted Changes in Total Testosterone: 49 ng/dL
[6]; [13]
  Predicted Changes in Total Testosterone: 55 ng/dL
[6]; [14]
  Predicted Changes in Total Testosterone: 21 ng/dL
[6]; [15]
  Predicted Changes in Total Testosterone: 31 ng/dL
[6]; [16]
  Predicted Changes in Total Testosterone: 35 ng/dL
[6]; [17]
  Predicted Changes in Total Testosterone: 57 ng/dL
[6]; [18]
  Predicted Changes in Total Testosterone: 92 ng/dL
[6]; [19]
  Predicted Changes in Total Testosterone: 123 ng/dL
[6]; [20]
  Predicted Changes in Total Testosterone: 137 ng/dL
[6]; [21]
  Predicted Changes in Total Testosterone: 43 ng/dL
[6]; [22]
  Predicted Changes in Total Testosterone: 61 ng/dL
[6]; [23]
  Predicted Changes in Total Testosterone: 69 ng/dL
[6]; [24]
  Predicted Changes in Total Testosterone: 113 ng/dL
[6]; [25]
  Predicted Changes in Total Testosterone: 184 ng/dL
[6]; [26]
  Predicted Changes in Total Testosterone: 245 ng/dL
[6]; [27]
  Predicted Changes in Total Testosterone: 273 ng/dL
[6]; [28]
  Predicted Changes in Total Testosterone: 85 ng/dL
[6]; [29]
  Predicted Changes in Total Testosterone: 123 ng/dL
[6]; [30]
  Predicted Changes in Total Testosterone: 139 ng/dL
[6]; [31]
  Predicted Changes in Total Testosterone: 226 ng/dL
[6]; [32]
  Predicted Changes in Total Testosterone: 128 ng/dL
[6]; [33]
  Predicted Changes in Total Testosterone: 184 ng/dL
[6]; [34]
  Predicted Changes in Total Testosterone: 208 ng/dL
[6]; [35]
  Predicted Changes in Total Testosterone: 339 ng/dL
[6]; [36]
  Predicted Changes in Total Testosterone: 553 ng/dL
[6]; [37]
  Predicted Changes in Total Testosterone: 736 ng/dL
[6]; [38]
  Predicted Changes in Total Testosterone: 820 ng/dL
[6]; 1313 mcg/day
  concentration at 3.5 day: 3.68 ng/mL
[6]; 1553 mcg/day
  concentration at 3.5 day: 4.9 ng/mL
[6]; 1656 mcg/day
  concentration at 3.5 day: 5.47 ng/mL
[6]; 2484 mcg/day
  concentration at 3.5 day: 8.2 ng/mL
